According to ChEMBL document CHEMBL2157896, “Engineering pH-gated transitions for selective and efficient double-strand DNA photocleavage in hypoxic tumors” (J Med Chem, 2011):
Active and inactive are the calls of the source. No cut-off for these calls is given here.

Experiments:
Nucleic Acid [1] = experiment: Induction of photochemical DNA cleavage in Escherichia coli pBR322 assessed as supercoiled DNA level at 15 uM in pH 6.0 phosphate buffer measured after 2 mins of UV irradiation; assay type: nucleic-acid assay
Nucleic Acid [2] = experiment: Induction of photochemical DNA cleavage in Escherichia coli pBR322 assessed as form I level at 15 uM in pH 6.0 phosphate buffer measured after 1 min of UV irradiation; assay type: nucleic-acid assay
Nucleic Acid [3] = experiment: Induction of photochemical DNA cleavage in Escherichia coli pBR322 assessed as form I level at 15 uM in pH 6.0 phosphate buffer measured after 2 mins of UV irradiation; assay type: nucleic-acid assay
Nucleic Acid [4] = experiment: Induction of photochemical DNA cleavage in Escherichia coli pBR322 assessed as form I level at 15 uM in pH 6.0 phosphate buffer measured after 4 mins of UV irradiation; assay type: nucleic-acid assay
Nucleic Acid [5] = experiment: Induction of photochemical DNA cleavage in Escherichia coli pBR322 assessed as form I level at 15 uM in pH 7.0 phosphate buffer measured after 1 min of UV irradiation; assay type: nucleic-acid assay
Nucleic Acid [6] = experiment: Induction of photochemical DNA cleavage in Escherichia coli pBR322 assessed as form I level at 15 uM in pH 7.0 phosphate buffer measured after 2 mins of UV irradiation; assay type: nucleic-acid assay
Nucleic Acid [7] = experiment: Induction of photochemical DNA cleavage in Escherichia coli pBR322 assessed as form I level at 15 uM in pH 7.0 phosphate buffer measured after 4 mins of UV irradiation; assay type: nucleic-acid assay
Nucleic Acid [8] = experiment: Induction of photochemical DNA cleavage in Escherichia coli pBR322 assessed as form I level at 15 uM in pH 7.0 phosphate buffer measured after 6 mins of UV irradiation; assay type: nucleic-acid assay
Nucleic Acid [9] = experiment: Induction of photochemical DNA cleavage in Escherichia coli pBR322 assessed as form I level at 15 uM in pH 8.0 phosphate buffer measured after 1 min of UV irradiation; assay type: nucleic-acid assay
Nucleic Acid [10] = experiment: Induction of photochemical DNA cleavage in Escherichia coli pBR322 assessed as form I level at 15 uM in pH 8.0 phosphate buffer measured after 2 mins of UV irradiation; assay type: nucleic-acid assay
Nucleic Acid [11] = experiment: Induction of photochemical DNA cleavage in Escherichia coli pBR322 assessed as form I level at 15 uM in pH 8.0 phosphate buffer measured after 4 mins of UV irradiation; assay type: nucleic-acid assay
Nucleic Acid [12] = experiment: Induction of photochemical DNA cleavage in Escherichia coli pBR322 assessed as form I level at 15 uM in pH 8.0 phosphate buffer measured after 6 mins of UV irradiation; assay type: nucleic-acid assay
Nucleic Acid [13] = experiment: Induction of photochemical DNA cleavage in Escherichia coli pBR322 assessed as form 2 level at 15 uM in pH 6.0 phosphate buffer measured after 2 mins of UV irradiation; assay type: nucleic-acid assay
Nucleic Acid [14] = experiment: Induction of photochemical DNA cleavage in Escherichia coli pBR322 assessed as form 2 level at 15 uM in pH 7.0 phosphate buffer measured after 4 mins of UV irradiation; assay type: nucleic-acid assay
Nucleic Acid [15] = experiment: Induction of photochemical DNA cleavage in Escherichia coli pBR322 assessed as form 2 level at 15 uM in pH 7.0 phosphate buffer measured after 6 mins of UV irradiation; assay type: nucleic-acid assay
Nucleic Acid [16] = experiment: Induction of photochemical DNA cleavage in Escherichia coli pBR322 assessed as form 2 level at 15 uM in pH 7.0 phosphate buffer measured after 8 mins of UV irradiation; assay type: nucleic-acid assay
Nucleic Acid [17] = experiment: Induction of photochemical DNA cleavage in Escherichia coli pBR322 assessed as form 2 level at 15 uM in pH 8.0 phosphate buffer measured after 2 mins of UV irradiation; assay type: nucleic-acid assay
Nucleic Acid [18] = experiment: Induction of photochemical DNA cleavage in Escherichia coli pBR322 assessed as form 2 level at 15 uM in pH 8.0 phosphate buffer measured after 6 mins of UV irradiation; assay type: nucleic-acid assay
Nucleic Acid [19] = experiment: Induction of photochemical DNA cleavage in Escherichia coli pBR322 assessed as form 2 level at 15 uM in pH 8.0 phosphate buffer measured after 8 mins of UV irradiation; assay type: nucleic-acid assay
Nucleic Acid [20] = experiment: Induction of photochemical DNA cleavage in Escherichia coli pBR322 assessed as form 2 level at 15 uM in pH 8.0 phosphate buffer measured after 10 mins of UV irradiation; assay type: nucleic-acid assay
Nucleic Acid [21] = experiment: Induction of photochemical DNA cleavage in Escherichia coli pBR322 assessed as form 3 level at 15 uM in pH 6.0 phosphate buffer measured after 0.5 mins of UV irradiation; assay type: nucleic-acid assay
Nucleic Acid [22] = experiment: Induction of photochemical DNA cleavage in Escherichia coli pBR322 assessed as form 3 level at 15 uM in pH 6.0 phosphate buffer measured after 1 min of UV irradiation; assay type: nucleic-acid assay
Nucleic Acid [23] = experiment: Induction of photochemical DNA cleavage in Escherichia coli pBR322 assessed as form 3 level at 15 uM in pH 6.0 phosphate buffer measured after 8 mins of UV irradiation; assay type: nucleic-acid assay
Nucleic Acid [24] = experiment: Induction of photochemical DNA cleavage in Escherichia coli pBR322 assessed as form 3 level at 15 uM in pH 7.0 phosphate buffer measured after 0.5 mins of UV irradiation; assay type: nucleic-acid assay
Nucleic Acid [25] = experiment: Induction of photochemical DNA cleavage in Escherichia coli pBR322 assessed as form 3 level at 15 uM in pH 7.0 phosphate buffer measured after 1 min of UV irradiation; assay type: nucleic-acid assay
Nucleic Acid [26] = experiment: Induction of photochemical DNA cleavage in Escherichia coli pBR322 assessed as form 3 level at 15 uM in pH 7.0 phosphate buffer measured after 4 mins of UV irradiation; assay type: nucleic-acid assay
Nucleic Acid [27] = experiment: Induction of photochemical DNA cleavage in Escherichia coli pBR322 assessed as form 3 level at 15 uM in pH 7.0 phosphate buffer measured after 6 mins of UV irradiation; assay type: nucleic-acid assay
Nucleic Acid [28] = experiment: Induction of photochemical DNA cleavage in Escherichia coli pBR322 assessed as form 3 level at 15 uM in pH 8.0 phosphate buffer measured after 1 min of UV irradiation; assay type: nucleic-acid assay
Nucleic Acid [29] = experiment: Induction of photochemical DNA cleavage in Escherichia coli pBR322 assessed as form 3 level at 15 uM in pH 8.0 phosphate buffer measured after 4 mins of UV irradiation; assay type: nucleic-acid assay
Nucleic Acid [30] = experiment: Induction of photochemical DNA cleavage in Escherichia coli pBR322 assessed as form 3 level at 15 uM in pH 8.0 phosphate buffer measured after 6 mins of UV irradiation; assay type: nucleic-acid assay
Nucleic Acid [31] = experiment: Induction of photochemical DNA cleavage in Escherichia coli pBR322 assessed as form 3 level at 15 uM in pH 8.0 phosphate buffer measured after 8 mins of UV irradiation; assay type: nucleic-acid assay
Nucleic Acid [32] = experiment: Induction of photochemical DNA cleavage in Escherichia coli pBR322 assessed as form 3 level at 15 uM in pH 8.0 phosphate buffer measured after 10 mins of UV irradiation; assay type: nucleic-acid assay
Nucleic Acid [33] = experiment: Induction of DNA cleavage in Escherichia coli pBR322 at 10 uM in pH 6.0 phosphate buffer measured after of UV irradiation; assay type: nucleic-acid assay
Nucleic Acid [34] = experiment: Induction of DNA damage in human […] cells at 30 uM incubated for 3 hrs by single cell gel electrophoresis; assay type: cell-based
Nucleic Acid [35] = experiment: Induction of DNA damage in human […] cells at 30 uM incubated for 3 hrs using cells exposed to UV irradiation for 20 mins by single cell gel electrophoresis; assay type: cell-based

`NCCCC[C@H](N)C(=O)NCCCC[C@H](N)C(=O)Nc1ccc(C#Cc2c(F)c(F)nc(F)c2F)cc1.O=C(O)C(F)(F)F` was tested, and the Activity (Nucleic Acid [1]) was less than 17%, the Activity (Nucleic Acid [2]) was 30.2% and the Activity (Nucleic Acid [3]) was 17.3%. The Activity (Nucleic Acid [4]) was 0%, the Activity (Nucleic Acid [5]) was 52.7% and the Activity (Nucleic Acid [6]) was 45.8%. It also gave an Activity (Nucleic Acid [7]) of 22.6%, an Activity (Nucleic Acid [8]) of 24.7% and an Activity (Nucleic Acid [9]) of 83.9%. For the same molecule, the Activity (Nucleic Acid [10]) was 77.8%, the Activity (Nucleic Acid [11]) was 58.6% and the Activity (Nucleic Acid [12]) was 40.8%. The Activity (Nucleic Acid [13]) was 54.2%, the Activity (Nucleic Acid [14]) was 52.4% and the Activity (Nucleic Acid [15]) was 47.2%. The Activity (Nucleic Acid [16]) was 51%, the Activity (Nucleic Acid [17]) was 22.2% and the Activity (Nucleic Acid [18]) was 59.2%. For the same molecule, the Activity (Nucleic Acid [19]) was 45.6%, the Activity (Nucleic Acid [20]) was 52.3% and the Activity (Nucleic Acid [21]) was 13.5%. The Activity (Nucleic Acid [22]) was 17.1%, the Activity (Nucleic Acid [23]) was 65% and the Activity (Nucleic Acid [24]) was 0%. For the same molecule, the Activity (Nucleic Acid [25]) was 0%, the Activity (Nucleic Acid [26]) was 25% and the Activity (Nucleic Acid [27]) was 28.1%. The Activity (Nucleic Acid [28]) was 0%, the Activity (Nucleic Acid [29]) was 0% and the Activity (Nucleic Acid [30]) was 0%. The Activity (Nucleic Acid [31]) was 12.1%, the Activity (Nucleic Acid [32]) was 21.3% and the Activity (Nucleic Acid [33]) was 75%. The Activity (Nucleic Acid [34]) was “Active” and the Activity (Nucleic Acid [35]) was “Active”.
